Paper PMC8403083 (OncoTargets and therapy, 2021)

What was measured:
CD73 = molecular target: T1, CD73 (Mus musculus, UniProt Q61503); assay: CMP hydrolysis by EMT6 cells, Malachite green phosphate detection; format: cell-based
T1 sequence (Q61503 29-551): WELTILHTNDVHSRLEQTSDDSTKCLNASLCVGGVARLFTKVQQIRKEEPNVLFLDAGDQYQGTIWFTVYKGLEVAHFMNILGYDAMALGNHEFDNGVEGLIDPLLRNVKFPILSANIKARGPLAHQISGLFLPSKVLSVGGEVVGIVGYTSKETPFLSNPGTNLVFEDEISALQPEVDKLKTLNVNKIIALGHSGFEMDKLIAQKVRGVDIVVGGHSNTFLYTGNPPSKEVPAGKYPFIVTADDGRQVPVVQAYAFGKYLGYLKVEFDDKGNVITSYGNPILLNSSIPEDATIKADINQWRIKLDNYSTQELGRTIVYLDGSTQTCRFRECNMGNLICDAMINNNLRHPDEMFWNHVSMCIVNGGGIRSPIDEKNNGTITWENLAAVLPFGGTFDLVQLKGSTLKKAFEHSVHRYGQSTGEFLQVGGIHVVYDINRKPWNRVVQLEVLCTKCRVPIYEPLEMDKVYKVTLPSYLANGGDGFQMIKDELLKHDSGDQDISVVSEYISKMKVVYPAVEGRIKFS

CD73 (5ʹ-Nucleotidase) = molecular target: T2, CD73 (5ʹ-Nucleotidase) (Homo sapiens, UniProt P21589); assay: Malachite green phosphate assay, CMP substrate, […] h preincubation; format: biochemical
T2 sequence (P21589 27-547): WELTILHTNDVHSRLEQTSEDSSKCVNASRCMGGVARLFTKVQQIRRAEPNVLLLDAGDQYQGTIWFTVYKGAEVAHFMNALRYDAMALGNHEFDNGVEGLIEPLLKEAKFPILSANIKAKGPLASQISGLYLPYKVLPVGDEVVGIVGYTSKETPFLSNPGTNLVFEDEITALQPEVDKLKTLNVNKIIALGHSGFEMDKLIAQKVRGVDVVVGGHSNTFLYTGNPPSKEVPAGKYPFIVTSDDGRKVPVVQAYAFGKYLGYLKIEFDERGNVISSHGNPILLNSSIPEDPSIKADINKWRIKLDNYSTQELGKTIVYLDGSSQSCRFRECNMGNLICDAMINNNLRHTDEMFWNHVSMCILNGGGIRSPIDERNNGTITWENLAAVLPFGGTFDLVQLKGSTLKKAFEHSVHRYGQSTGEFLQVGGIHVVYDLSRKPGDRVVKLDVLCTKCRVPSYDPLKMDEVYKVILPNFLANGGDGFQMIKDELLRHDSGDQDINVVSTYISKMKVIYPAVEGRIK

Row | SMILES | IC50 (CD73) | IC50 (CD73 (5ʹ-Nucleotidase))
1 | O=P(O)(O)COC[C@H]1O[C@@H](n2ncc3c(N4CC5(CCc6ccccc65)C4)nc(Cl)nc32)[C@H](O)[C@@H]1O [SHR170008, ((((2R,3S,4R,5R)-5-(6-chloro-4-(2ʹ,3ʹ-dihydrospiro[azetidine-3,1ʹ-inden]-1-yl)-1H-pyrazolo[3,4-d]pyrimidin-1-yl)-3,4-dihydroxytetrahydrofuran-2-yl)methoxy)methyl) phosphonic acid] | 0.133 ± 0.008 nM | –
2 | Nc1ncnc2c1ncn2[C@@H]1O[C@H](COP(=O)(O)CP(=O)(O)O)[C@@H](O)[C@H]1O [AMPCP] | 130 ± 8 nM | 3.8 ± 0.8 nM
